Test results taken from patent US6974797B2, “Cross-linked glycopeptide-cephalosporin antibiotics” (Theravance, Inc., priority 2001, dated 2005).
≈ marks a conversion by molar mass, not a printed value.

Legend:
[1] = 5 wt. % dextrose buffer solution, titrated to pH 3, duplicate sample preparations
Method: The aqueous solubility of a compound of this invention was determined using the following procedure. A 5 wt. % dextrose buffer solution at pH 2.2 was prepared by adding 1 mL of 1 N hydrochloric acid (Aldrich) to 99 mL of a 5 wt. % aqueous dextrose solution (Baxter).
A 1 mg/mL stock solution for calibration standards was then prepared by dissolving 1 mg of the test compound in 1 mL of DMSO. This solution was vortexed for 30 seconds and then sonicated for 10 minutes. The stock solution was then diluted with water to prepare calibration standards having the following concentrations: 50, 125, 250, 375 and 500 ug/mL.
Each test compound (30 mg) was weighed into a Millipore non-sterile, Ultrafree-MC 0.1 um filter unit (Millipore UFC30VVOO) and a magnetic stir bar was added to each unit. The 5 wt. % dextrose buffer solution (750 uL) was then added to each unit and these mixtures were vortexed for 5 minutes. The filter units were then placed in an Eppendorf tube rack and the tube rack was placed on top of a magnetic stirrer. […]
The calibration standards and the test samples were analyzed by reverse-phase HPLC using the following conditions:
The solubility of each test sample was calculated by comparing the peak area of the test sample to the calibration curve and multiplying by the dilution factor.

MSSA 13709 = test: Time-kill assay, MSSA 13709; assay type: cell-based, Staphylococcus aureus
Method: (§1) This time-kill assay is a method for measuring the rate of bactericidal activity of a test compound. […] A rapid time-kill is desirable to quickly prevent bacterial colonization and reduce host tissue damage.
(§2) Bacteria were diluted in prewarmed media in shake flasks and incubated with shaking (200 rpm, 35° C.). At 0, 1, 4, and 24 hours samples were withdrawn from the flasks and bacteria were enumerated by plate counting. Subsequent to the initial sampling, a compound to be assayed was added to the shake flask culture. Plate counts at these intervals previous to and following addition of the compound were expressed graphically in a time-kill curve.

MRSA 33591 [2] = test: Time-kill assay, MRSA 33591; assay type: cell-based, Staphylococcus aureus
Method: as §1, §2

MRSA 33591 [3] = test: In vivo efficacy in neutropenic mice (thigh infection); parameters: species or system Staphylococcus aureus; conditions: neutropenic male CD-1 mice, MRSA 33591 thigh infection, iv, 24 hours post-treatment
Method: Animals (male CD-1 mice, 20-30 g) were acquired from Charles Rivers Laboratories (Gilroy, Calif.) and allowed access to food and water ad libitum. Neutropenia was induced via 200 mg/kg intraperitoneal (IP) injection of cyclophosphamide given four and two days prior to the inoculation of bacteria.
The organism used was either a susceptible or resistant strain of clinically relevant gram positive pathogens, such as methicillin-susceptible Staphylococcus aureus (MSSA 13709) and methicillin-resistant Staphylococcus aureus (MRSA 33591). The bacterial inoculum concentration was ˜10^6 CFU/mL. Animals were lightly anesthetized with isoflurane and […] of the bacterial inoculum was injected into the anterior thigh. One hour after the inoculation, animals were dosed intravenously with vehicle or the appropriate dose of the test compound. At 0 hours and 24 hours post-treatment, the animals were euthanized (CO2 asphyxiation) and the anterior and posterior thigh collected aseptically. The thigh was placed into 10 mL sterile saline and homogenized. Dilutions of the homogenate were plated onto triptic soy agar plates which were incubated overnight. The number of bacterial colonies on a given plate was multiplied by the dilution factor, divided by the thigh weight (in grams) and expressed as log CFU/g. […]

[4] = tested on: Methicillin-resistant S. epidermitis (MRSE) and other coagulase-negative staphylococci; test: Minimal inhibitory concentration (MIC90), broth microdilution, MRSE and other coagulase-negative staphylococci; assay type: cell-based, Staphylococcus epidermidis
Method: (§3) Minimal inhibitory concentration (MICs) assays were performed using the broth microdilution method set forth in NCCLS guidelines (see, NCCLS. 2000. Methods for Dilution Antimicrobial Susceptibility Tests for Bacteria That Grow Aerobically; Approved Standard—Fifth Ed., Vol. 20, No. 2). Bacterial strains were obtained from the American Type Tissue Culture Collection (ATCC), Stanford University Hospital (SU), Kaiser Permanente Regional Laboratory in Berkeley (KPB), Massachusetts General Hospital (MGH), the Centers for Disease Control (CDC), the San Francisco Veterans' Administration Hospital (SFVA) or the University of California San Francisco Hospital (UCSF). Vancomycin-resistant enterococci were phenotyped as Van A or Van B based on their sensitivity to teicoplanin. Some vancomycin-resistant enterococci that had been genotyped as Van A, Van B, Van C1 or Van C2 were also obtained from the Mayo Clinic.
(§4) In this assay, cryopreserved bacterial cultures of reference and clinical strains were streaked for isolation on appropriate agar medium (i.e., Trypticase Soy Agar, Trypticase Soy Agar with defibrinated sheep erthrocytes, Brain Heart Infusion Agar, Chocolate Agar). Following incubation to allow formation of colonies, these plates were sealed with parafilm and stored refrigerated for up to two weeks. […] The MIC was read visually as the lowest concentration well with no bacterial growth. […]

[5] = tested on: Methicillin-resistant S. aureus (MRSA); test: Minimal inhibitory concentration (MIC90), broth microdilution, MRSA strains; assay type: cell-based, Staphylococcus aureus
Method: as §3, §4

[6] = tested on: methicillin-resistant S. aureus strains; test: Minimal inhibitory concentration (MIC), broth microdilution, individual MRSA strains; assay type: cell-based, Staphylococcus aureus
Method: as §3
In this assay, cryopreserved bacterial cultures of reference and clinical strains were streaked for isolation on appropriate agar medium (i.e., Trypticase Soy Agar, Trypticase Soy Agar with defibrinated sheep erthrocytes, Brain Heart Infusion Agar, Chocolate Agar). Following incubation to allow formation of colonies, these plates were sealed with parafilm and stored refrigerated for up to two weeks. For preparation of assay inocula and to ensure low variability, several colonies from a bacterial isolate cultured on the agar plates were pricked with an inoculating loop and aseptically transferred to Mueller-Hinton Broth (supplemented with divalent cations to required levels based on manufacturer's certification). The broth culture was grown overnight at 35° C., diluted in fresh prewarmed broth and grown to log phase; this is equivalent to a 0.5 MacFarland standard or 1×10^8 colony forming units per milliliter (CFU/mL). Not all cell suspensions, due to species variability, contained 1×10^8 CFU/mL when turbidity is equivalent to the MacFarland standard, therefore acceptable adjustments (based on NCCLS guidelines) were made in dilutions of different bacterial strains. […] The plates were then incubated 18-24 hours at 35° C. The MIC was read visually as the lowest concentration well with no bacterial growth. Bacterial growth is defined as more than three pinpoint colonies, a button of precipitated cells larger than 2 mm in diameter, or obvious turbidity.
Strains routinely tested in the initial screen included methicillin-sensitive Staphylococcus aureus (MSSA), methicillin-resistant Staphylococcus aureus (MRSA), Staphylococcus aureus producing penicillinase, methicillin-sensistive Staphylococcus epidermidis (MSSE), methicillin-resistant Staphylococcus epidermidis (MRSE), vancomycin-sensitive Enterococcus faecium (EFMVS), vancomycin-sensitive Enterococcus faecalis (EFSVS), vancomycin-resistant Enterococcus faecium also resistant to teicoplanin (EFMVR Van A), vancomycin-resistant Enterococcus faecium sensistive to teicoplanin (EFMVR Van B), vancomycin-resistant Enterococcus faecalis also resistant to teicoplanin (EFSVR Van A), vancomycin-resistant Enterococcus faecalis sensitive to teicoplanin (EFSVR Van B), penicillin-sensitive Streptococcus pneumoniae (PSSP) and penicillin-resistant Streptococcus pneumoniae (PSRP). Because of the inability of PSSP and PSRP to grow well in Mueller-Hinton broth, MICs with those strains were determined using either TS broth supplemented with defibrinated blood or Haemophilus test medium.

CNC(CC(C)C)C(=O)NC1C(=O)NC(CC(N)=O)C(=O)NC2C(=O)NC3C(=O)NC(C(=O)NC(C(=O)NCCCON=C(C(=O)NC4C(=O)N5C(C(=O)[O-])=C(C[n+]6ccccc6)CSC45)c4nc(N)sc4Cl)c4cc(O)cc(O)c4-c4cc3ccc4O)C(O)c3ccc(c(Cl)c3)Oc3cc2cc(c3OC2OC(CO)C(O)C(O)C2OC2CC(C)(N)C(O)C(C)O2)Oc2ccc(cc2Cl)C1O.Cl.Cl.Cl (centres unmarked) [Compound 1]
aqueous solubility [1]: > 47.9 mg/mL | bactericidal concentration (≧3 log decrease in bacterial cell numbers) (MSSA 13709; MSSA 13709, in 4 hours): ≤ 1 μg/mL | bactericidal concentration (≧3 log decrease in bacterial cell numbers) (MRSA 33591 [2]; MRSA 33591, in 4 hours): ≤ 1 μg/mL | ED50 (dose required to produce 50% of the maximum reduction in thigh titre) (MRSA 33591 [3]): < 0.20 mg/kg | MIC90 (minimum inhibitory concentration for 90% of strains tested) ([4]; MRSE and other coagulase-negative staphylococci, n = 34 strains): <0.1 µg/mL | MIC90 (minimum inhibitory concentration for 90% of strains tested) ([5]; n = 53 strains): <0.1 µg/mL | MIC ([6]; MRSA 33591): ≦0.1 μg/mL | MIC ([6]; MRSA MED-84): ≦0.1 μg/mL | MIC ([6]; MRSA MED-85): ≦0.1 μg/mL | MIC ([6]; MRSA MED-86): ≦0.1 μg/mL | MIC ([6]; MRSA MED-87): ≦0.1 μg/mL | MIC ([6]; MRSA MED-88): ≦0.1 μg/mL | MIC ([6]; MRSA MED-89): ≦0.1 μg/mL | MIC ([6]; MRSA MED-103): ≦0.1 μg/mL | MIC ([6]; MRSA MED-104): 0.10 µg/mL | MIC ([6]; MRSA MED-107): ≦0.1 μg/mL | MIC ([6]; MRSA MED-110): 0.20 µg/mL | MIC ([6]; MRSA MED-572): ≦0.1 μg/mL

CN[C@H](CC(C)C)C(=O)N[C@H]1C(=O)N[C@@H](CC(N)=O)C(=O)N[C@H]2C(=O)N[C@H]3C(=O)N[C@H](C(=O)N[C@H](C(=O)O)c4cc(O)cc(O)c4-c4cc3ccc4O)[C@H](O)c3ccc(c(Cl)c3)Oc3cc2cc(c3O[C@@H]2O[C@H](CO)[C@@H](O)[C@H](O)[C@H]2O[C@H]2C[C@](C)(N)[C@H](O)[C@H](C)O2)Oc2ccc(cc2Cl)[C@H]1O [Vancomycin, vancomycin, reference compound]
bactericidal concentration (≧3 log decrease in bacterial cell numbers) (MSSA 13709; MSSA 13709, in 24 hours): 4 μg/mL | bactericidal concentration (≧3 log decrease in bacterial cell numbers) (MRSA 33591 [2]; MRSA 33591, in 24 hours): 4 μg/mL | ED50 (MRSA 33591 [3]; Staphylococcus aureus, read-out: ED50 (dose required to produce 50% of the maximum reduction in thigh titre)): 9 mg/kg | MIC90 ([4]; Staphylococcus epidermidis, MRSE, read-out: MIC90 (minimum inhibitory concentration for 90% of strains tested)): 4 µg/mL (≈ 2.76 µM) | MIC90 ([5]; Staphylococcus aureus, read-out: MIC90 (minimum inhibitory concentration for 90% of strains tested)): 3 µg/mL (≈ 2.07 µM)

CNC(CC(C)C)C(=O)NC1C(=O)NC(CC(N)=O)C(=O)NC2C(=O)NC3C(=O)NC(C(=O)NC(C(=O)NCCCON=C(C(=O)NC4C(=O)N5C(C(=O)[O-])=C(C[n+]6ccccc6)CSC45)c4csc(N)n4)c4cc(O)cc(O)c4-c4cc3ccc4O)C(O)c3ccc(c(Cl)c3)Oc3cc2cc(c3OC2OC(CO)C(O)C(O)C2OC2CC(C)(N)C(O)C(C)O2)Oc2ccc(cc2Cl)C1O (centres unmarked) [Compound 34, reference compound]
MIC ([6]; MRSA 33591): 0.17 µg/mL (≈ 0.0872 µM) | MIC ([6]; MRSA MED-84): 0.29 µg/mL (≈ 0.149 µM) | MIC ([6]; MRSA MED-85): 0.32 µg/mL (≈ 0.164 µM) | MIC ([6]; MRSA MED-86): 0.29 µg/mL (≈ 0.149 µM) | MIC ([6]; MRSA MED-87): 0.49 µg/mL (≈ 0.251 µM) | MIC ([6]; MRSA MED-88): 0.34 µg/mL (≈ 0.174 µM) | MIC ([6]; MRSA MED-89): 0.18 µg/mL (≈ 0.0924 µM) | MIC ([6]; MRSA MED-103): 0.20 µg/mL (≈ 0.103 µM) | MIC ([6]; MRSA MED-104): 0.58 µg/mL (≈ 0.298 µM) | MIC ([6]; MRSA MED-107): 0.34 µg/mL (≈ 0.174 µM) | MIC ([6]; MRSA MED-110): 0.49 µg/mL (≈ 0.251 µM) | MIC ([6]; MRSA MED-572): <0.1 µg/mL
